Measured values taken from patent publication US7718846B2, “Animal models of long QT syndrome and uses thereof” (priority 2005, dated 2010).

Tests used:
IKs = conditions: experimental models in dogs; cited from earlier work
IKr = conditions: E4031 0.5 μM; cited from earlier work
[1] = tested on: rabbit left ventricular wedge preparation; conditions: 100 μM
Protocol: Shown are floating microelectrode recordings from an M cell in the subendocardial region of the wedge preparation and an ECG recorded across the bath.
Rabbits weighing 2.5 3.5 kg may be anticoagulated with heparin and anesthetized with pentobarbital (30-35 mg/kg, i.v.). Transmural wedges with dimensions of approximately 2×1.5×0.9 cm to 3×2×1.5 cm may be dissected from the left ventricle. The tissue may be cannulated via a small (diameter ˜100 μm) native branch of the left descending coronary artery and perfused with cardioplegic solution. Unperfused tissue may be carefully removed using a razor blade. […] A transmural ECG may be recorded using electrodes consisting of AgCl half cells attached to Tyrode's-filled tapered polyethylene electrodes which will be placed in the Tyrode's solution bathing the preparation, 1.0 to 1.5 cm from the epicardial and endocardial surfaces of the preparation, along the same vector as the transmembrane recordings. […] Transmembrane action potentials may be simultaneously recorded from epicardial, M, and endocardial sites using three to four separate intracellular floating microelectrodes (DC resistance: 10 to 20 MΩ) filled with 2.7 M KCl and connected to a high-input impedance amplifier. […]

LQT2 = conditions: cited from earlier work
α1-adrenoreceptors = conditions: cited from earlier work
α1-adrenoreceptor = conditions: infusion, patient with LQTS; cited from earlier work
WT rabbits = conditions: Carlsson rabbit model; cited from earlier work

In the case of `CCS(=O)(=O)N(C)[C@H]1c2cc(C#N)ccc2OC(C)(C)[C@@H]1O` (racemic) [chromanol 293B], the “TdP, spontaneous or in response to program stimulation” value (IKs) is listed as “never produced TdP”.
For `Cc1cccc(CCN2CCC(C(=O)c3ccc(NS(C)(=O)=O)cc3)CC2)n1` [E4031, Benzenesulfonamide E-4031], the APD (IKr) is given as greater than 1 s and the “apex-to-base dispersion of repolarization” value (IKr) is given as “marked enhancement of the apex-to-base dispersion of repolarization with reversal of repolarization”.
In the case of `CC(C)NC[C@@H](O)c1ccc(NS(C)(=O)=O)cc1` [d-sotalol], the “Action potential duration at 90% repolarization (APD90)” value [1] was 427 ms and the QT interval [1] was 467 ms.
For `CC(C)NCC(O)c1ccc(O)c(O)c1` (centres unmarked) [isoproterenol], the “duration of transient increase in TDR” value (LQT2) is given as “less than 2 minutes”.
In the case of `COc1ccc(OC)c(C(O)C(C)N)c1` (centres unmarked) [methoxamine], the “APD90 in tissues from the M region” value (α1-adrenoreceptors; canine wedge preparations) is given as “abbreviation of APD90”, the “APD90 in Purkinje fibers” value (α1-adrenoreceptors; canine) is given as “dose- and rate-dependent prolongation of APD90” and the QTc (α1-adrenoreceptor) is given as “prolong the QTc”.
In the case of `COc1cc2nc(N3CCN(C(=O)c4ccco4)CC3)nc(N)c2cc1OC` [prazosin], the “suppression of arrhythmias by pretreatment” value (WT rabbits) is listed as “as effective as pretreatment with propranolol in suppressing the arrhythmias”.
In the case of `CC(C)NCC(O)COc1cccc2ccccc12` (centres unmarked) [propranolol], the “suppression of arrhythmias by pretreatment” value (WT rabbits) is given as “suppressing the arrhythmias”.
